Read-outs that look alike come from different tables or passages of the source.
How the values were obtained:
melanoma cell line A375 = experiment: Cytotoxicity in cancer cell lines (CellTiter-Glo), A375; conditions: Homo sapiens, A375 cells, mean of three tests
Method: (§2) The cytotoxicity of test compounds was determined for several cell lines including melanoma cell line RPMI-7951, melanoma cell line Sk-Mel-28, melanoma cell line A375, melanoma cell line U87, glioblastoma cell line U87, immortalized human T lymphocyte Jurkat cells, and human pancreatic carcinoma cell line PL-45.
(§3) All cells were obtained from ATCC. RPMI, DMEM, EMEM and pen/strep were obtained from Invitrogen. Normocin® was obtained from InvivoGen. FBS was obtained from Gibco. Cell viability reagent Cell-titer glow was obtained from Promega.
(§4) The growth media for A375 and PL45 cells was DMEM supplemented with antibiotic/anti-mycotic pen/strep and Normocin® (InvivoGen) and 10% FBS.
(§5) Ten (10) mM solutions of each of the test compounds were prepared in dimethyl sulfoxide (DMSO) and serially diluted in DMSO to provide solutions having concentrations of the test compound of 3 mM, 1 mM, 0.3 mM, 0.1 mM, 0.03 mM, or 0.01 mM. Forty (40) μL of each of the solutions were further diluted to 400 μL in the cell specific complete media to provide 10× stock solutions having a 1 mM, 300 μM, 100 μM, 30 μM, 10 μM, 3 μM, 1 μM, or 0.3 μM of the test compound. Ten (10) μL of DMSO was diluted to 400 μL in the complete media and used as the 0 μM control.
(§6) For the cytotoxicity studies, all cells were grown in their respective complete media. Confluent cells were harvested and plated into two 96-well tissue culture treated plates at 5,000-8,000 cells/wells in 180 μL media. Twenty (20) μL of each of the 10× stock solutions were added to the wells and mixed.
(§7) After incubating for 24 h, media was aspirated out and replaced with 180 μL/well of the fresh media and 20 μL/well of the 10× stock solutions in duplicate wells in duplicate plates (Plates 1 and 2; and 3 and 4) and in quadruplicate wells (Plate 5) were added, mixed and cultured for 48 hours. The final concentrations of each test compound were 100 μM, 30 μM, 10 μM, 3 μM, 1 μM, 0.3 μM, 0.1 μM and 0 μM.
(§8) After 48 hours and/or 72 hours following addition of the test compounds, one plate each was removed from the incubator, the media aspirated out, 100 μL of CellTiter-Glo® reagent added to each well, and the resulting luminescent signals measured using a VICTOR-2® plate reader.
(§9) The data from the plate reader were exported to GraphPad (Prism) and data processed using non-linear regression and EC50 value determined.

[1] = system: melanoma cell line Sk-Mel-28; experiment: Cytotoxicity in cancer cell lines (CellTiter-Glo), Sk-Mel-28; assay type: cell-based
Text: (§1) All cells were obtained from ATCC. […] Normocin® was obtained from InvivoGen. FBS was obtained from Gibco. […] All test compounds were synthesized as described herein.

[2] = system: immortalized human T lymphocyte Jurkat cells; experiment: Cytotoxicity in cancer cell lines (CellTiter-Glo), Jurkat; assay type: cell-based
Text: as §1

[3] = system: melanoma cell line RPMI-7951; experiment: Cytotoxicity in cancer cell lines (CellTiter-Glo), RPMI-7951; assay type: cell-based; conditions: Homo sapiens
Text: as §1

[4] = system: glioblastoma cell line U87; experiment: Cytotoxicity in cancer cell lines (CellTiter-Glo), U87; assay type: cell-based
Text: as §1

[5] = system: human pancreatic carcinoma cell line PL-45; experiment: Cytotoxicity in cancer cell lines (CellTiter-Glo), PL-45; conditions: PL45, 48 h, read-out: Cytotoxicity EC50 at 48 hours, PL-45
Method: as §2, §3, §4, §5, §6, §7, §8, §9

[6] = A-375, 48 h, read-out: Cytotoxicity EC50 at 48 hours, A375, 48 h
[7] = Homo sapiens, SK-MEL-28, 48 h, 48 h, Sk-Mel-28 cells, mean of three tests, read-out: Cytotoxicity EC50 at 48 hours, Sk mel
[8] = 48 h, Jurkat cells, mean of three tests, read-out: Cytotoxicity EC50 at 48 hours, Jurkat
[9] = RPMI-7951, 48 h, read-out: Cytotoxicity EC50 at 48 hours, RPMI
[10] = Homo sapiens, U-87 MG, 48 h; U87 cells; mean of three tests; read-out: Cytotoxicity EC50 at 48 hours, U87
[11] = A-375, 72 h, read-out: Cytotoxicity EC50 at 72 hours, A375, 72 h
[12] = Homo sapiens, SK-MEL-28, 72 h, 72 h, Sk-Mel-28 cells, mean of three tests, read-out: Cytotoxicity EC50 at 72 hours, Sk mel
[13] = 72 h, Jurkat cells, mean of three tests, read-out: Cytotoxicity EC50 at 72 hours, Jurkat
[14] = RPMI-7951, 72 h, read-out: Cytotoxicity EC50 at 72 hours, RPMI
[15] = Homo sapiens, U-87 MG, 72 h; U87 cells; mean of three tests; read-out: Cytotoxicity EC50 at 72 hours, U87
[16] = Homo sapiens, SK-MEL-28, 48 h, read-out: Cytotoxicity EC50 at 48 hours, Sk mel
[17] = Homo sapiens, SK-MEL-28, 72 h, read-out: Cytotoxicity EC50 at 72 hours, Sk mel
[18] = Jurkat, 48 h, read-out: Cytotoxicity EC50 at 48 hours, Jurkat
[19] = Jurkat, 72 h, read-out: Cytotoxicity EC50 at 72 hours, Jurkat
[20] = Homo sapiens, U-87 MG, 48 h, read-out: Cytotoxicity EC50 at 48 hours, U87
[21] = Homo sapiens, U-87 MG, 72 h, read-out: Cytotoxicity EC50 at 72 hours, U87

Compound | EC50 (melanoma cell line A375; [6]) [µM] | EC50 [1, 7] [µM] | EC50 [2, 8] [µM] | EC50 [3, 9] [µM] | EC50 [4, 10] [µM] | EC50 (melanoma cell line A375; [11]) [µM] | EC50 [3, 14] [µM] | other results
CN(C1C=CS(=O)(=O)C1)S(=O)(=O)c1ccc2ccccc2c1 (centres unmarked) [(2), N-(1,1-dioxido-2,3-dihydrothiophen-3-yl)-N-methylnaphthalene-2-sulfonamide] | > 100 | > 100 | 53 | 85 | > 100 | – | – | –
O=S1(=O)C=CC(NS(=O)(=O)c2ccc3ccccc3c2)C1 (centres unmarked) [(3), N-(1,1-dioxido-2,3-dihydrothiophen-3-yl)naphthalene-2-sulfonamide] | 14 | > 100 | 6 | 19 | 100 | – | – | –
O=S1(=O)C=CC(OCc2ccc3ccccc3c2)C1 (centres unmarked) [(4), 3-(naphthalen-2-ylmethoxy)-2,3-dihydrothiophene 1,1-dioxide] | 19 | 78 | 7 | 44 | > 100 | 5 | 26 | EC50 [1, 12]: 42 µM; EC50 [2, 13]: 4 µM; EC50 [4, 15]: 53 µM
O=S1(=O)C=CC(OCc2ccc(-c3ccccc3)cc2)C1 (centres unmarked) [(5), 3-([1,1′-biphenyl]-4-ylmethoxy)-2,3-dihydrothiophene 1,1-dioxide] | 80 | > 100 | 6 | 72 | > 100 | 75 | 86 | EC50 [1, 12]: > 100 µM; EC50 [2, 13]: 2 µM; EC50 [4, 15]: > 100 µM
O=S1(=O)C=CC(OCc2ccc(Oc3ccccc3)cc2)C1 (centres unmarked) [(6), 3-((4-phenoxybenzyl)oxy)-2,3-dihydrothiophene 1,1-dioxide] | 24 | 69 | > 100 | 40 | > 100 | 19 | 24 | EC50 [1, 12]: 48 µM; EC50 [2, 13]: > 100 µM; EC50 [4, 15]: 46 µM
O=S1(=O)C=CC(OCCc2ccc3ccccc3c2)C1 (centres unmarked) [(7), 3-(2-(naphthalen-2-yl)ethoxy)-2,3-dihydrothiophene 1,1-dioxide] | 29 | 95 | 10 | 19 | – | – | – | –
O=C(COC1C=CS(=O)(=O)C1)c1ccc2ccccc2c1 (centres unmarked) [(8), 2-((1,1-dioxido-2,3-dihydrothiophen-3-yl)oxy)-1-(naphthalen-2-yl)ethan-1-one] | 11 | – | 0.5 | 20 | – | 46 | 16 | EC50 [1, 16]: > 100 µM; EC50 [1, 17]: 77 µM; EC50 [2, 13]: 0.5 µM; EC50 ([4]; Homo sapiens, U-87 MG; 48 h; U87 cells; mean of three tests; read-out: Cytotoxicity EC50 at 48 hours, U87): > 100 µM; EC50 ([4]; Homo sapiens, U-87 MG; 72 h; U87 cells; mean of three tests; read-out: Cytotoxicity EC50 at 72 hours, U87): 37 µM
O=C(COC1C=CS(=O)(=O)C1)c1ccc(-c2ccccc2)cc1 (centres unmarked) [(9), 1-([1,1′-biphenyl]-4-yl)-2-((1,1-dioxido-2,3-dihydrothiophen-3-yl)oxy)ethan-1-one] | 19 | – | – | 11 | – | 47 | 10 | EC50 [1, 16]: 71 µM; EC50 [1, 17]: 12 µM; EC50 [2, 18]: 22 µM; EC50 [2, 19]: 9 µM; EC50 [4, 20]: 32 µM; EC50 [4, 21]: 28 µM
O=C(Nc1ccc2ccccc2c1)OC1C=CS(=O)(=O)C1 (centres unmarked) [(10), 1,1-dioxido-2,3-dihydrothiophen-3-yl naphthalen-2-ylcarbamate] | 31 | – | – | 39 | – | 46 | 28 | EC50 [1, 16]: 38 µM; EC50 [1, 17]: 25 µM; EC50 [2, 18]: > 100 µM; EC50 [2, 19]: 8 µM; EC50 [4, 20]: > 100 µM; EC50 [4, 21]: 31 µM
O=C(Nc1ccc(-c2ccccc2)cc1)OC1C=CS(=O)(=O)C1 (centres unmarked) [(11), 1,1-dioxido-2,3-dihydrothiophen-3-yl [1,1′-biphenyl]-4-ylcarbamate] | – | – | – | 25 | – | 97 | 12 | EC50 [1, 16]: 66 µM; EC50 [1, 17]: 62 µM; EC50 [2, 18]: 10 µM; EC50 [4, 20]: 3 µM
O=C(Nc1ccc2ccccc2c1)NC1C=CS(=O)(=O)C1 (centres unmarked) [(12), 1-(1,1-dioxido-2,3-dihydrothiophen-3-yl)-3-(naphthalen-2-yl)urea] | > 100 | – | – | 100 | – | – | – | EC50 [1, 16]: > 100 µM; EC50 [2, 18]: > 100 µM; EC50 [4, 20]: > 100 µM
O=C(Nc1ccc(-c2ccccc2)cc1)NC1C=CS(=O)(=O)C1 (centres unmarked) [(13), 1-([1,1′-biphenyl]-4-yl)-3-(1,1-dioxido-2,3-dihydrothiophen-3-yl)urea] | > 100 | > 100 | 86 | > 100 | 1 | – | – | –
O=C(NC1C=CS(=O)(=O)C1)c1ccc2ccccc2c1 (centres unmarked) [(14), N-(1,1-dioxido-2,3-dihydrothiophen-3-yl)-2-naphthamide] | 86 | > 100 | 10 | 12 | > 100 | 70 | 9.4 | EC50 [1, 12]: 100 µM
O=C(Cc1ccc2ccccc2c1)NC1C=CS(=O)(=O)C1 (centres unmarked) [(15), N-(1,1-dioxido-2,3-dihydrothiophen-3-yl)-2-(naphthalen-2-yl)acetamide] | 42 | 73 | 26 | 36 | 100 | – | – | –
CN(C1CCS(=O)(=O)C1)S(=O)(=O)c1ccc2ccccc2c1 (centres unmarked) [(16)] | > 100 | > 100 | 9 | > 100 | > 100 | 100 | > 100 | EC50 [1, 12]: > 100 µM; EC50 [2, 13]: 8 µM; EC50 [4, 15]: > 100 µM
CN(C1=CS(=O)(=O)CC1)S(=O)(=O)c1ccc2ccccc2c1 [(19), N-(1,1-dioxido-4,5-dihydrothiophen-3-yl)-N-methylnaphthalene-2-sulfonamide] | > 100 | 82 | > 100 | > 100 | > 100 | – | – | EC50 ([1]; 48 h, Sk-Mel-28 cells, mean of three tests, read-out: Cytotoxicity EC50 at 48 hours, Sk mel): > 100 µM
CN(C1=CCS(=O)(=O)C1)S(=O)(=O)c1ccc2ccccc2c1 [(20), N-(1,1-dioxido-2,5-dihydrothiophen-3-yl)-N-methylnaphthalene-2-sulfonamide] | > 100 | > 100 | > 100 | > 100 | > 100 | – | – | –
O=C(OC1C=CS(=O)(=O)C1)c1ccc(Oc2ccccc2)cc1 (centres unmarked) [(23), 1,1-Dioxido-2,3-dihydrothiophen-3-yl 4-phenoxybenzoate] | 23 | – | – | – | – | – | – | EC50 [5]: 8.3 µM
O=C(OC1C=CS(=O)(=O)C1)c1ccc(-c2ccccc2)cc1 (centres unmarked) [(24), 1,1-dioxido-2,3-dihydrothiophen-3-yl [1,1′-biphenyl]-4-carboxylate] | > 100 | – | – | – | – | – | – | EC50 [5]: 49 µM
O=S1(=O)C=CC(OS(=O)(=O)c2cccc(Oc3ccccc3)c2)C1 (centres unmarked) [(25), 1,1-dioxido-2,3-dihydrothiophen-3-yl 3-phenoxybenzenesulfonate] | 6 | – | – | – | – | – | – | EC50 [5]: 0.9 µM
O=S1(=O)C=CC(OS(=O)(=O)c2cccc(-c3ccccc3)c2)C1 (centres unmarked) [(26), 1,1-dioxido-2,3-dihydrothiophen-3-yl [1,1′-biphenyl]-3-sulfonate] | 7 | – | – | – | – | – | – | EC50 [5]: 1 µM
O=S1(=O)C=CC(OS(=O)(=O)c2ccc(Cc3ccccc3)cc2)C1 (centres unmarked) [(28), 1,1-dioxido-2,3-dihydrothiophen-3-yl 4-benzylbenzenesulfonate] | 14 | – | – | – | – | – | – | EC50 [5]: 0.9 µM
CCOS(=O)(=O)c1ccc2ccccc2c1 [(31), ethyl naphthalene-2-sulfonate] | > 100 | – | – | – | – | – | – | –
CC(C)OS(=O)(=O)c1ccc2ccccc2c1 [(32), isopropyl naphthalene-2-sulfonate] | > 100 | – | – | – | – | – | – | –

— patent publication US12595243B2, “Modulators of extracellular signal-regulated kinase” (GEN1E LIFESCIENCES INC., priority 2023, dated 2026)
